Reference: patent US10143202B2, “Synergistic blends of antimicrobials useful for controlling microorganisms in industrial processes” (Solenis Technologies, L.P., priority 2014, dated 2018)
Values after ≈ are worked out from the molar mass of the structure shown.

Columns and labels:
[1] = tested on: Lactobacillus plantarum; assay: Minimal Inhibitory Concentration (MIC), two-fold dilution series in 96 well microplate, antimicrobial used alone; type: cell-based; conditions: pH 5, 18-24 hours, complete inhibition of growth
Experimental: This is the lowest concentration of a substance or substances which can achieve complete inhibition of growth.
In order to determine the Minimal Inhibitory Concentration, a two-fold dilution series of the antimicrobial is constructed with the dilutions being made in growth media. The dilutions are made in a 96 well microplate such that each well has a final volume of 280 μl of media and antimicrobial. […] After the dilution series is constructed the wells receive an inoculum of microbe suspended in growth media such that the final concentration of microbes in the well is ˜5×10^5 cfu/ml. In these examples the test microbe used is Lactobacillus plantarum. The cultures are incubated at an appropriate temperature for 18-24 hours, and the wells scored as positive or negative for growth based on a visual examination for turbid wells.

[2] = tested on: fermentation; conditions: cited from earlier work
[3] = tested on: Weisella confusa; conditions: cited from earlier work

Compound: O=C(O)CC(O)(CC(=O)O)C(=O)O [Citric Acid, citric acid]
- MIC ([1]; Lactiplantibacillus plantarum, read-out: Citric Acid MIC (QC), Used Alone): 6250 µg/mL (≈ 32.5 mM)
- Citric Acid MIC (QC), Used Alone [1]: 6250 ppm

Compound: [O][Cl+][O-] [ClO2, chlorine dioxide]
- ClO2 MIC (QA), Used Alone [1]: 54 ppm

Compound: Virginiamycin
- Concentration that will suppress fermentation [2]: over 2 mg/L
- Concentration required to inhibit growth of Weisella confusa [3]: over 25 mg/L
